Results as given in a melting point compilation (Tetko et al.; mined from patent text by program, amines drawn as free bases though some values may be those of a salt).

Row | Compound | melting point [°C]
1 | COC(=O)c1cccc(OCc2ncc3ccccc3n2)c1 | 78 to 80
2 | CCOC(=O)c1cn(C2CC2)c2c(F)c(NCC(O)COC(=O)c3ccccc3)c(F)cc2c1=O (stereo not given) | 134 to 136
3 | CCc1c(C(=O)N(O)O)cc(C(C)(C)C)c(O)c1C(C)(C)C | 147 to 150
4 | CCN(CC)CCCN1C(=O)NC(Cc2c[nH]c3ccccc23)C1=O (stereo not given) | 90
5 | Cc1sc(S(C)=O)nc1-c1ccccc1 (stereo not given) | 96 to 97
6 | COc1c(C)cc(-c2cc(-c3ccc(S(C)(=O)=O)cc3)c(N3CCOCC3)s2)nc1C | 152
7 | OC1CSC(Oc2cccc3ccoc23)C(O)C1O (stereo not given) | 160
8 | CCOC(=O)c1c(C(F)(F)F)nc(C(F)F)c(C(=O)O)c1NC1CC1 | 120 to 122
9 | CC(=O)Nc1nc(OCC(C)C)c2nc(Cl)ccc2n1 | 168
10 | C=Cc1cc(O)cc2nc(-c3ccc(O)c(F)c3F)oc12 | 276 to 278
11 | C[C@@H]1CC[C@@H](C(C)(C)c2ccccc2)[C@@H](Oc2cn(C(c3ccccc3)c3ccccc3)c(=O)o2)C1 | 118 to 120
12 | Cc1ccc2c(NCc3ccc(NC(=O)C4CCN(Cc5ccc(C(F)(F)F)cc5)CC4)cc3)nc(N(C)C)nc2c1 | 126 to 128
13 | CC(C)c1ccc(C2COc3ccc(NC(=O)CC(C)(C)C)cc32)cc1 (stereo not given) | 119 to 120
14 | COc1ccc(C2(CC(=O)O)CNC(=O)C2)cc1 (stereo not given) | 172 to 175
15 | O=C1C=C(NC(=O)C(=O)c2cn(Cc3ccc([N+](=O)[O-])cc3)c3ccccc23)CO1 | 275 to 277
16 | CO/C=C(/C(=O)OC)c1ccccc1Br | 68 to 69
17 | Nc1c(F)c(F)cc2c1c(=O)c(C(=O)O)cn2C1COC1 | > 300
18 | CC(C)N1CCC(CNc2ccc(Cl)cc2C(=O)Nc2ccc(F)cn2)CC1 | 72 to 74
19 | O=C1Cc2ccccc2Sc2cc(C(F)(F)F)c(Cl)cc21 | 123 to 124
20 | CC(C)n1nc(-c2c(-c3ccccc3)nn3ccc(OCC(=O)N(C)C)cc23)ccc1=O | 189 to 190
21 | CC1(C)CC(=O)C(c2ccc(N)cc2Cl)C(=O)C1 | 218 to 219
22 | CC(CCCC(F)(C(F)(F)F)C(F)(F)F)C1CC(=O)C2=C3CCC4CC(O)CCC4(C)C3CCC21C (stereo not given) | 177 to 179
23 | [O-][N+](O)=Cc1ccc(Cl)cc1 | 151 to 153
24 | CCOc1ccc(C2=NC[C@@H](O)[C@H](c3ccccc3)O2)cc1 (racemic) | 124

Row | Compound | melting point [°C]
25 | CC1=Cc2cc(F)c(F)cc2C1 | 86 to 90
26 | CCn1ccc(-c2ccc(C(=O)N3Cc4cccn4Cc4ccccc43)cc2)n1 | 180 to 183
27 | COc1ccc(-c2cc(=Nc3c(C)cc(C)cc3C)n(C)c(N3CC=CCC3)n2)cc1OC | 161 to 163
28 | COc1ccc(C/N=C/C(/C=N/Cc2ccc(OC)cc2)[N+](=O)[O-])cc1 | 132
29 | O=C(NOC1CCCCO1)c1cnc(N2CCN(S(=O)(=O)c3ccc4ccccc4c3)CC2)nc1 (stereo not given) | 198
30 | OCc1cccn2cc(C(F)(F)F)nc12 | 118 to 120
31 | COc1ccc(C=CC(=O)Nc2c(-c3ccccc3C)c3cc4c(cc3oc2=O)CCC4)cc1OC | 159 to 160
32 | CC1CCC2(C)C(=CCC3C2CCC2(C)C3CCC23OCCO3)C1 (stereo not given) | 121 to 122
33 | Cc1cc(C)cc(C(=O)c2c(C(C)C)c(=O)[nH]c(=O)n2Cc2cc(C)nc(N3C(=O)c4ccccc4C3=O)c2)c1 | 310 to 311
34 | CCOC(=O)c1cn(C2CC2)c2cc(-c3cc(C4OCC(C)(C)CO4)cc(OC)c3OC)c(F)cc2c1=O | 178 to 180
35 | Cc1cnc(Cl)c(C(=O)N(C)C)c1 | 117 to 119
36 | NC(=O)c1ccc(C(Cc2ccc(F)cc2)C(=O)Nc2nc3ccccc3o2)cc1 (stereo not given) | 137 to 139
37 | CC(=O)NC[C@H]1CN(c2ccc(N3CCC4(CC3)CC4=S=O)c(F)c2)C(=O)O1 | 78 to 80
38 | CCn1cc(C(=O)O)c(=O)c2cc([N+](=O)[O-])c(-c3cc(C)nc(C)c3)cc21 | 289 to 291
39 | CC=CC=CCOC(=O)C1=C(C)NC(C)=C(C(=O)OC)C1c1cccc(C(F)(F)F)c1 (stereo not given) | 130 to 131
40 | CC(C)NC(=O)c1c(F)cccc1S(=O)C(C)(C)C (stereo not given) | 120 to 135
41 | CC(C)Nc1cccnc1N1CCN(C(=O)c2ccc(C(=O)NCCN(C)C)cc2)CC1 | 133
42 | CCSc1sc(C#N)c(N(C)C(C)=O)c1C#N | 68
43 | C/C(=C\C(N)=O)c1ccc2c(c1)C(C)(C)OC(=O)N2 | 198 to 200
44 | COC1(c2cc(F)cc(Sc3ccc4c(c3)O[C@H](C)C(=O)N4C)c2)CCOCC1 | 107 to 109
45 | CCCCCCCCCCC=Cc1cnn(C(C(=O)Nc2c(C(C)C)cccc2C(C)C)c2ccccc2)c1 (stereo not given) | 158
46 | COc1ccc(CC(=O)N(Cc2ccc(C)cc2)C2CCN(CC3CCCCC3)CC2)cc1 | 133 to 135
47 | N#Cc1cc(F)c(N)c(F)c1 | 110 to 111
48 | COC(=O)[C@@H](NC(=O)OCc1ccccc1)[C@H](O)c1ccccc1 | 107 to 108

Row | Compound | melting point [°C]
49 | FC(F)C(F)(F)Oc1ccc(C=NNc2nc(Nc3ccc(OC(F)(F)F)cc3)nc(N3CCOCC3)n2)cc1 | 203 to 206
50 | CC(=NNc1ccc(-c2n[nH]c(=O)cc2C)cc1)c1ccc(O)cc1O | 299 to 303
51 | Cn1cc(C(=O)C(=O)Cl)c2ccccc21 | 122 to 133
52 | CC(=O)Nc1c(C(=O)c2ccccc2)[nH]c2cc(N)ccc12 | 219 to 221
53 | Cn1ncnc1COc1nc2c(cc1-c1ccoc1)nnn2-c1ccccc1F | 145 to 146
54 | CCOC(=O)C1(C(=O)OCC)CCC2(c3cc(OC)c(OC)cc3CCN2C(C)=O)C(C2c3cc(OC)c(OC)cc3CCN2C)C1 (stereo not given) | 166 to 168
55 | Cc1ccc(-c2ccc3c(c2)C=C(C(=O)Nc2ccc(CN4CCN(C)CC4)cc2)CC3)cc1 | 174 to 175
56 | NCCOc1nc2ccccc2n1C1CCN(C2(c3ccccc3)CCCCCC2)CC1 | 180 to 184
57 | CCOc1nc2cccc(C(=O)O)c2n1Cc1ccc(-c2ccccc2-c2nnnn2C(c2ccccc2)(c2ccccc2)c2ccccc2)cc1 | 168 to 170
58 | O=C1OC(=O)c2c(Br)c(Sc3ccccc3)c(Sc3ccccc3)c(Br)c21 | 183 to 184
59 | O=c1c(Cc2ccncc2)cc2cccnc2n1-c1cccc([N+](=O)[O-])c1 | 230
60 | Oc1cccc2c1C=CC=CN2 | 132 to 136
61 | COc1ccc(S(=O)(=O)N2c3ccc(Br)cc3-c3ccccc3C2c2ccccc2)cc1 (stereo not given) | 209 to 211
62 | Clc1ccc(C(Cn2ccnc2)OCc2cc(Cl)nc3ccccc23)c(Cl)c1 (stereo not given) | 180 to 181
63 | CN1C(=S)N(c2ccc(C#N)c(C(F)(F)F)c2)C(=N)C1(C)C | 173 to 174
64 | O=C(c1ccc(Cl)cc1)c1ccccc1N=C=S | 162 to 166
65 | CCOC(=O)NOC(=O)CCCCC(=O)ONC(=O)OCC | 60
66 | O=C(Cn1nnnc1-c1ccoc1)OCCO | 91 to 93
67 | CC(=O)Nc1cccc(OCc2cc([N+](=O)[O-])ccc2C(=O)O)c1 | 225
68 | O=[PH](c1ccc2c(c1)OCO2)c1ccc2c(c1)OCO2 | 128
69 | COc1ccc(S(=O)(=O)Nc2ccccc2Nc2ccccn2)cc1 | 113 to 116
70 | Cn1cc([C@H]2CC[C@@H](N3CCN(c4cc(C=O)cc5cccnc45)CC3)CC2)c2cc(C#N)ccc21 | 172 to 174
71 | Cc1cccc2sc(=NC(=O)C(F)(F)F)n(N)c12 | 160 to 161
72 | OC1c2ccccc2CSc2ccc(Br)cc21 (stereo not given) | 169 to 170

Row | Compound | melting point [°C]
73 | COc1ccc(CN2CCN(C3=NC4(C=CC(=O)C=C4)C(c4ccc(OC)cc4)=C3)CC2)cc1 | 142
74 | O=C1C(=Cc2cccs2)CCc2cc(OCCn3ccnc3)ccc21 | 137 to 138
75 | O=C1N(c2ccc(Cl)cc2Cl)Cc2cnc(Nc3ccccc3)nc2N1c1cccc(CCN2CCNCC2)c1 | 126
76 | CN1CCN(C2Cc3cc(Cl)ccc3Sc3ccc(F)cc32)CC1 (stereo not given) | 118 to 120
77 | OCC1CCC(N2CCC(=C3c4ccc(F)cc4Sc4ccc(C(F)(F)F)cc43)CC2)CC1 (stereo not given) | 208 to 211
78 | CN(C)C=Cc1ccc([N+](=O)[O-])c2[nH]ncc12 | 255
79 | COc1ccc2ccc(O)c(Cl)c2c1 | 76 to 78
80 | CC(C)(C)c1cc(CCc2ccccc2NC(=O)NCC(C)(C)c2cccc(F)c2)cc(C(C)(C)C)c1O | 165 to 166
81 | CN1Sc2cc3c(cc2CC1=O)CCCC3 | 202 to 203
82 | Cc1cc(OC(F)(F)C(F)Cl)ccc1NC(=O)CCCC=C(F)F (stereo not given) | 59 to 60
83 | CCCc1nn(C)c2c(=O)n(CCOc3ccc(SC(C)(C)C(=O)OCC)cc3)c(C)nc12 | 106 to 108
84 | CCC(=O)Oc1ccc(NCc2c(F)c(F)c(C(F)(F)F)c(F)c2F)cc1C(=O)O | 188 to 191
85 | CCOC(=O)c1cn(C2CC2)c2c(F)c(N3CC[C@H](N)C3)c(F)cc2c1=O | 227 to 228
86 | Cn1c(C(F)(F)F)cc(=O)n(-c2ccc3snc(C(C)(C)C(=O)O)c3c2)c1=O | 155 to 156
87 | CCN1c2ncc(COc3cccc4[nH]ccc34)cc2C(=O)N(C)c2ccc(Cl)nc21 | 183 to 185
88 | CC(C)(Sc1ccc(-n2cncn2)nn1)C(O)(Cn1cncn1)c1ccc(F)cc1F (single isomer, unassigned; (+)) | 226 to 227
89 | C=Cc1ccc2c(NCc3ccc(NC(=O)C4CCN(Cc5ccccc5)CC4)cc3)nc(N(C)C)nc2c1 | 180
90 | CC(C)n1cc(-c2ccc(C=O)cc2)c2c(N)ncnc21 | 198 to 200
91 | COc1cc2c(c(OC(C)=O)c1)C1CCC3(C)C(OC(C)=O)=CCC3C1CC2 (stereo not given) | 118
92 | O=C1NCCN(Cc2ccc(OCc3ccccc3)cc2)C1c1ccccc1 (stereo not given) | 207 to 211
93 | CCCn1ccc(-c2ccc(C(=O)N3Cc4cccn4Cc4ccccc43)cc2)n1 | 159 to 161
94 | COC(=O)[C@H](C)NC(=O)C(=O)Nc1ccccc1C(C)(C)C | 60.1 to 62.1
95 | COc1ccc(CCc2nc(Br)c(C(F)(F)F)[nH]2)cc1 | 104 to 106
